Inconclusive results and toxic doses are left out.

From PubChem BioAssay AID330 (DTP/NCI, 2004) come the findings set out here.

The subject of this assay is P388 leukemia ip, CD2F1 mice, survival T/C. The experiment in a line: NCI In Vivo Anticancer Drug Screen. Data for tumor model P388 Leukemia (intraperitoneal) in CD2F1 (CDF1) mice. Conditions: endpoint: median survival time, higher = longer survival. In short, it runs like this: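 Mice carrying the transplanted tumor received test compound or vehicle. Survival was recorded in each group, and the value is the treated-group measurement divided by that of the vehicle-treated control group.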

Setting [1] is: dose: 100.0 mg/kg/injection, schedule: Q04DX002 (ip), vehicle: Klucel (hydroxypropylcellulose) (HPC).
Where [2] appears, read: dose: 200.0 mg/kg/injection, schedule: Q04DX002 (ip), vehicle: Klucel (hydroxypropylcellulose) (HPC).
[3] abbreviates: dose: 400.0 mg/kg/injection, schedule: Q04DX002 (ip), vehicle: Klucel (hydroxypropylcellulose) (HPC).
Where [4] appears, read: dose: 60.0 mg/kg/injection, schedule: Q01DX005 (ip), vehicle: Klucel (hydroxypropylcellulose) (HPC).
Where [5] appears, read: dose: 120.0 mg/kg/injection, schedule: Q01DX005 (ip), vehicle: Klucel (hydroxypropylcellulose) (HPC).
Setting [6] is: dose: 240.0 mg/kg/injection, schedule: Q01DX005 (ip), vehicle: Klucel (hydroxypropylcellulose) (HPC).
Where [7] appears, read: dose: 50.0 mg/kg/injection, schedule: Q01DX009 (ip), vehicle: Klucel (hydroxypropylcellulose) (HPC).
Setting [8] is: dose: 100.0 mg/kg/injection, schedule: Q01DX009 (ip), vehicle: Klucel (hydroxypropylcellulose) (HPC).
[9] abbreviates: dose: 200.0 mg/kg/injection, schedule: Q01DX009 (ip), vehicle: Klucel (hydroxypropylcellulose) (HPC).
Setting [10] is: dose: 400.0 mg/kg/injection, schedule: Q01DX009 (ip), vehicle: Klucel (hydroxypropylcellulose) (HPC).
[11] abbreviates: dose: 60.0 mg/kg/injection, schedule: Q01DX005 (ip), vehicle: saline with Tween-80.
Where [12] appears, read: dose: 120.0 mg/kg/injection, schedule: Q01DX005 (ip), vehicle: saline with Tween-80.
[13] abbreviates: dose: 100.0 mg/kg/injection, schedule: Q01DX009 (ip), vehicle: saline.
Setting [14] is: dose: 200.0 mg/kg/injection, schedule: Q01DX009 (ip), vehicle: saline.
Where [15] appears, read: dose: 200.0 mg/kg/injection, schedule: Q01DX009 (ip), vehicle: saline with Tween-80.
Where [16] appears, read: dose: 25.0 mg/kg/injection, schedule: Q01DX009 (ip), vehicle: Klucel (hydroxypropylcellulose) (HPC).
[17] abbreviates: dose: 50.0 mg/kg/injection, schedule: Q01DX005 (ip), vehicle: saline with Tween-80.
[18] abbreviates: dose: 100.0 mg/kg/injection, schedule: Q01DX005 (ip), vehicle: saline with Tween-80.
Setting [19] is: dose: 200.0 mg/kg/injection, schedule: Q01DX005 (ip), vehicle: saline with Tween-80.
Where [20] appears, read: dose: 25.0 mg/kg/injection, schedule: Q01DX005 (ip), vehicle: saline with Tween-80.

Take `CCC(c1ccc(OC)cc1)C(NCC(=O)NNC(=S)NCc1ccccc1)c1ccc(OC)cc1` (stereo not drawn): the T/C (dose: 100.0 mg/kg/injection, schedule: Q01DX001 (ip), vehicle: saline with Tween-80) was 92 % of control; the T/C (dose: 200.0 mg/kg/injection, schedule: Q01DX001 (ip), vehicle: saline with Tween-80) was 99 % of control; the T/C (dose: 400.0 mg/kg/injection, schedule: Q01DX001 (ip), vehicle: saline with Tween-80) is 99 % of control.
Regarding `CSc1nc2c(=S)[nH]c(=S)[nH]c2s1`, the T/C by setting is: under setting [1], 101 % of control; under setting [2], 100 % of control; under setting [3], 100 % of control.
On to `O=C(C1=Cc2ccccc2OC1)N1CCN(c2ccccc2Cl)CC1`, for which the T/C is 106 % of control (dose: 100.0 mg/kg/injection, schedule: Q04DX003 (ip), vehicle: Klucel (hydroxypropylcellulose) (HPC)); 101 % of control (dose: 200.0 mg/kg/injection, schedule: Q04DX003 (ip), vehicle: Klucel (hydroxypropylcellulose) (HPC)); 88 % of control (dose: 400.0 mg/kg/injection, schedule: Q04DX003 (ip), vehicle: Klucel (hydroxypropylcellulose) (HPC)).
For `CC1=NN(C(=O)c2ccccn2)C(c2ccccc2)/C1=N\Nc1ccc(S(N)(=O)=O)cc1` (stereo not drawn), the T/C is, setting by setting: under setting [4], 87 % of control; under setting [5], 93 % of control; under setting [6], 87 % of control.
With `COc1ccc(/C=C2\SC(=S)NC2=O)cc1OC`, the T/C is 94 % of control under setting [7], 92 % of control under setting [8], 94 % of control under setting [9] and 91 % of control under setting [10].
Turning to `CCOC(=O)C(CN1C(=O)c2ccccc2C1=O)(NC(C)=O)C(=O)OCC`, the T/C is 103 % of control (dose: 25.0 mg/kg/injection, schedule: Q01DX009 (ip), vehicle: other); 106 % of control (dose: 50.0 mg/kg/injection, schedule: Q01DX009 (ip), vehicle: other); 103 % of control (dose: 100.0 mg/kg/injection, schedule: Q01DX009 (ip), vehicle: other); 114 % of control (dose: 200.0 mg/kg/injection, schedule: Q01DX009 (ip), vehicle: other); 120 % of control (dose: 400.0 mg/kg/injection, schedule: Q01DX009 (ip), vehicle: other).
Turning to `CCOc1ccccc1/C=C1\CCc2ccccc2C1=O`, the T/C reads like this: under setting [7], 100 % of control; under setting [8], 100 % of control; under setting [9], 102 % of control.
Turning to `NC(=S)c1ccc(C=NCc2ccccc2)cc1`, the T/C is 100 % of control under setting [1], 100 % of control under setting [2] and 100 % of control under setting [3].
With `Cc1cn2c(n1)Nc1sc3c(c1C2)CCCC3`, the T/C runs as follows: under setting [11], 101 % of control; under setting [12], 103 % of control; (dose: 240.0 mg/kg/injection, schedule: Q01DX005 (ip), vehicle: saline with Tween-80) 100 % of control.
With `S=C(NCc1ccccc1)N1CCC(CCCC2CCN(C(=S)NCc3ccccc3)CC2)CC1`, the T/C under setting [4] is 92 % of control, the T/C under setting [5] was 91 % of control and the T/C under setting [6] was 88 % of control.
In the case of `O=C(C(Br)(Br)Br)C(Br)(Br)c1ccccc1`, the T/C reads like this: under setting [7], 101 % of control; under setting [8], 101 % of control; under setting [9], 99 % of control.
On to `CCC(C(=O)Nc1ccccc1-c1ccccc1)c1ccccc1` (stereo not drawn), for which the T/C (dose: 6.25 mg/kg/injection, schedule: Q01DX009 (ip), vehicle: saline with Tween-80) is 110 % of control; the T/C (dose: 12.5 mg/kg/injection, schedule: Q01DX009 (ip), vehicle: saline with Tween-80) is 101 % of control; the T/C (dose: 25.0 mg/kg/injection, schedule: Q01DX009 (ip), vehicle: saline with Tween-80) is 96 % of control; the T/C under setting [13] was 96 % of control; the T/C under setting [14] is 87 % of control.
With `CCCCCCCCCCCCCCOc1ccc(C(C)=O)o1`, the T/C is 95 % of control (dose: 50.0 mg/kg/injection, schedule: Q01DX009 (ip), vehicle: saline with Tween-80) and 100 % of control under setting [15].
Turning to `CCOC(=O)c1nc(OCC)nc(OCC)c1C#CCO`, the T/C was 95 % of control (dose: 12.5 mg/kg/injection, schedule: Q01DX009 (ip), vehicle: distilled water + Tween-80); 93 % of control (dose: 25.0 mg/kg/injection, schedule: Q01DX009 (ip), vehicle: distilled water + Tween-80); 102 % of control (dose: 50.0 mg/kg/injection, schedule: Q01DX009 (ip), vehicle: distilled water + Tween-80); 98 % of control (dose: 100.0 mg/kg/injection, schedule: Q01DX009 (ip), vehicle: distilled water + Tween-80).
For `CSc1nc2ccc(NC(=O)CCC(=O)O)cc2s1`, the T/C by setting is: (dose: 6.25 mg/kg/injection, schedule: Q01DX009 (ip), vehicle: Klucel (hydroxypropylcellulose) (HPC)) 104 % of control; (dose: 12.5 mg/kg/injection, schedule: Q01DX009 (ip), vehicle: Klucel (hydroxypropylcellulose) (HPC)) 101 % of control; under setting [16], 107 % of control.
On to `CN1C(=O)N(C)C2=NC(=O)N(C)C2(C(Cl)(Cl)Cl)C1=O` (stereo not drawn), for which the T/C runs as follows: (dose: 7.5 mg/kg/injection, schedule: Q01DX005 (ip), vehicle: saline with Tween-80) 103 % of control; (dose: 15.0 mg/kg/injection, schedule: Q01DX005 (ip), vehicle: saline with Tween-80) 102 % of control; (dose: 30.0 mg/kg/injection, schedule: Q01DX005 (ip), vehicle: saline with Tween-80) 112 % of control; under setting [11], 112 % of control.
Turning to `C/C(=N\Nc1cc(C)c2cccc(C)c2n1)c1ccccn1`, the T/C reads like this: under setting [17], 105 % of control; under setting [18], 91 % of control; under setting [19], 91 % of control.
Regarding `CCOc1ccc(C(C)c2cc3c(cc2OCC)OCO3)cc1` (stereo not drawn), the T/C under setting [20] is 120 % of control and the T/C under setting [19] was 157 % of control.
Consider `COC(=O)C1=NNC(C(=O)OC)=C(c2ccccc2)C(c2ccccc2)=N1`, for which the T/C under setting [16] is 89 % of control; the T/C under setting [7] was 90 % of control; the T/C under setting [8] is 93 % of control; the T/C under setting [9] is 98 % of control; the T/C under setting [10] is 106 % of control.
Take `Nc1ccc(N=Nc2ccncc2)c2ccccc12`: the T/C is, setting by setting: under setting [17], 100 % of control; under setting [18], 100 % of control.
Regarding `Cc1ccc2c(C(=O)O)cc(-c3ccc4c(c3)OCO4)nc2c1`, the T/C is, setting by setting: under setting [7], 98 % of control; under setting [8], 98 % of control; under setting [9], 106 % of control.
For `COc1ccccc1N1C(=O)CSC1=S`, the T/C was 86 % of control (dose: 100.0 mg/kg/injection, schedule: Q01DX009 (ip), vehicle: saline with Tween-80); 90 % of control (dose: 100.0 mg/kg/injection, schedule: Q04DX003 (ip), vehicle: saline with Tween-80); 90 % of control under setting [15]; 90 % of control (dose: 200.0 mg/kg/injection, schedule: Q04DX003 (ip), vehicle: saline with Tween-80); 100 % of control (dose: 400.0 mg/kg/injection, schedule: Q04DX003 (ip), vehicle: saline with Tween-80).
As to `CC1(C)CC(=O)C=C(Nc2ccc(O)cc2)C1`, the T/C by setting is: (dose: 6.25 mg/kg/injection, schedule: Q01DX005 (ip), vehicle: saline with Tween-80) 100 % of control; (dose: 12.5 mg/kg/injection, schedule: Q01DX005 (ip), vehicle: saline with Tween-80) 100 % of control; under setting [20], 96 % of control; under setting [18], 86 % of control.
With `O=C1c2cccnc2-c2ncccc21`, the T/C was 93 % of control under setting [11] and 91 % of control under setting [12].
`CC(C)COC(CN(C)C)C(Cl)(Cl)Cl` (stereo not drawn): the T/C by setting is: (dose: 50.0 mg/kg/injection, schedule: Q01DX009 (ip), vehicle: saline) 107 % of control; under setting [13], 100 % of control; under setting [14], 116 % of control.
